Measurements from paper PMC6753678, “Fueling Open Innovation for Malaria Transmission-Blocking Drugs: Hundreds of Molecules Targeting Early Parasite Mosquito Stages” (Frontiers in Microbiology, 2019).

Columns and labels:
HepG2 cells = assay: HepG2 cytotoxicity assay; conditions: HepG2 cytotoxicity unified across screens; >25 set to 25.00
Procedure, shortened: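 Cells at 2,500 per well in MEM with 10% fetal bovine serum and 1% NEAA were exposed to test compounds for 48 h at 37°C, 5% CO2. Viability was read by fluorescence, with percent inhibition calculated against 50 μM doxorubicin (positive) and DMSO (negative) controls.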

[1] = test system: P. falciparum late stage (stages IV-V) gametocytes; parameters: method as in Almela et al 2016; conditions: P. falciparum late stage gametocyte ATP assay, TCAMS screen; ref Almela et al 2016; read-out: Pf GCT ATP IC50; cited from earlier work
[2] = test system: P. falciparum late stage (stages IV-V) gametocytes; assay: P. falciparum late stage gametocyte ATP depletion assay (Pf GC-ATP); conditions: 1: YES; 0: NO; >10-fold selectivity over cytotoxicity

SMILES	Unified cytotox (HepG2 cells) [µM]	IC50 [1] [nM]	Is compound selective in assay? Pf GC-ATP active? [2]
CCCCCCNC(=N)c1ccc(OCCCCCOc2ccc(C(=N)NCCCCCC)cc2)cc1.Cl [TCMDC-137619]	5.39	310	1 (1: YES)
CCCCCCC(N)c1ccc(OCCCOc2ccc(C(N)CCCCCC)cc2)cc1.Cl (stereo not drawn) [TCMDC-137621]	1.90	53.3	1 (1: YES)
CCCCCOc1ccc(C(=NC)N(CCCCC)CCCCC)c2ccccc12.I [TCMDC-137703]	6.30	890	0 (0: NO)
CCOc1ccc2ccccc2c1CNCCCCCCNCc1c(OCC)ccc2ccccc12.CS(=O)(=O)O [TCMDC-137791]	1.75	700	0 (0: NO)
Br.c1cc(C2=NC3CCCCC3N2)ccc1OCCCCCOc1ccc(C2=NC3CCCCC3N2)cc1 (stereo not drawn) [TCMDC-137802]	3.74	280	1 (1: YES)
COc1ccc2c(c1CNCCCCCCNCc1c(OC)ccc3c1CCCC3)CCCC2 [TCMDC-137817]	3.83	420	0 (0: NO)
COc1cc2ccccc2c(OC)c1CNCCCCCCNCc1c(OC)cc2ccccc2c1OC.CS(=O)(=O)O [TCMDC-137843]	4.25	320	1 (1: YES)
CN(CCCNCc1cccc2ccccc12)CCCNCc1cccc2ccccc12.Cl [TCMDC-137905]	5.72	230	1 (1: YES)
COCCCNC(=S)NN=C(C)c1ccccn1 [TCMDC-137907]	17.00	160	1 (1: YES)
Cl.c1ccc2c(CNCCCN3CCN(CCCNCc4c5ccccc5cc5ccccc45)CC3)c3ccccc3cc2c1 [TCMDC-137909]	6.28	110	1 (1: YES)
Cl.c1ccc2c(NCCCCCCNc3ccnc4ccccc34)ccnc2c1 [TCMDC-137913]	16.40	960	1 (1: YES)
Cl.c1ccc2c(c1)cc(CNCCCN1CCN(CCCNCc3cc4ccccc4c4ccccc34)CC1)c1ccccc12 [TCMDC-137914]	13.70	1110	1 (1: YES)
Cl.c1ccc(CN2CCN(CCCCNc3c4ccccc4nc4ccccc34)CC2)cc1 [TCMDC-138009]	9.92	790	1 (1: YES)
COc1ccc2nc3cc(Cl)ccc3c(NCCCCNc3c4ccc(Cl)cc4nc4ccc(OC)cc34)c2c1 [TCMDC-138218]	14.47	200	1 (1: YES)
Cc1nc(-c2cccc(Nc3ccnc4cc(-c5nccs5)ccc34)c2)no1.Cl [TCMDC-138334]	7.62	300	1 (1: YES)
Cc1cc(NCCc2ccccc2)nc(NC(=N)Nc2ccccc2Cl)n1 [TCMDC-138370]	13.60	4870	0 (0: NO)
CS(=O)(=O)CCNCc1nc(-c2ccc3c(=O)[nH]cnc3c2)cs1 [TCMDC-138539]	4.20	2680	0 (0: NO)
Cl.O=C(NCCCCN1CCC(c2ccc3c(c2OCCO)CCCC3)CC1)c1ccc2oc(-c3ccc(C(F)(F)F)cc3)cc2c1 [TCMDC-138771]	6.59	630	1 (1: YES)
C=C(C)Cn1cc(C2CCN(CCN3CCC(CNC(=O)c4ccc(-c5ccc(C#N)cc5)cc4)CC3)CC2)c2ccccc21 [TCMDC-138854]	3.70	2930	0 (0: NO)
